Several values for one entry are separate records, joined by “and”; a condition that tells them apart may be missing. Identical values can stand only once. Entries after “also recorded” stand apart in the source; their conditions may differ.
Columns and labels:
[1] = test system: M2e; parameters: species or system BALB/c mice; settings: mouse, in vivo, sc
[2] = test system: M2e; parameters: species or system BALB/c mice; settings: mouse, in vivo
[3] = test system: Influenza virus (A/PR8/8/34 strain, H1N1); format: in vivo, BALB/c mice; settings: mouse, in vivo
[4] = test system: M2e; parameters: species or system BALB/c mice; settings: mouse, in vivo; remark: listed apart in the source

Sequence	anti-M2e antibody titer, comparison in words [1]	also measured
SLLTEVETPIRNECWCGCRCNCDSSD [M2eC151621]	antibody titer comparable to M2e	
SLLTEVETPIRNEWCGCRCNCDCSCSCD [M2eC1621222324]	higher than that of M2eC162122	
SLLTEVETPIRNEWCGCRCNCDCSCSD [M2eC16212223]	higher than that of M2eC162122	
SLLTEVETPIRNEWCGCRCNCDCSSD [M2eC162122]	higher antibody titer than that of M2e	
SLLTEVETPIRNEWCGCRCNCDSSD [M2eC1621]	increased anti-M2e antibody titer than M2eC21	
SLLTEVETPIRNEWGCRCNCCCDSSD [M2eC212121]	induced a high anti-M2e antibody titer	
SLLTEVETPIRNEWGCRCNCDCSCSCD [M2eC21222324]	higher than that of M2eC212223	
SLLTEVETPIRNEWGCRCNCDCSCSD [M2eC212223]	higher antibody titer than that of M2e	anti-M2e antibody titer just before challenge [2]: could induce a high anti-M2e antibody titer
SLLTEVETPIRNEWGCRCNCDCSSD [M2eC2122]	increased anti-M2e antibody titer than M2eC21	
SLLTEVETPIRNEWGCRCNCDSCSD [M2eC2123]	increased anti-M2e antibody titer than M2eC21	
SLLTEVETPTRSEWECRCSCDCSCSD [swM2eC212223]		Survival rate [3]: 9/9 and 7/8; anti-M2e antibody titer immediately before challenge [4]: the highest; also recorded: high anti-M2e antibody titer

From US8883165B2, “Modified peptide vaccine derived from influenza M2” (The Chemo-Sero-Therapeutic Research Institute, priority 2009, dated 2014)
